Target: Aβ (1-42) (Homo sapiens, UniProt P05067)
Test: Thioflavin T fluorescence anti-aggregation assay with […] Aβ
Format: biochemical

Aβ (1-42), sequence (P05067 672-713): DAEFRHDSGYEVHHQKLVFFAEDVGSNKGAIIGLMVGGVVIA

IC50: 8.01 ± 0.5 µM
Structure (SMILES): O=c1oc2c(O)c(O)cc3c(=O)oc4c(O)c(O)cc1c4c23 [EA, Ellagic acid]

From paper PMC11416286 (Heliyon, 2024)
